Measurements as given in US20150239889A1, “PYRAZOLOPYRIMIDINE COMPOUND” (MITSUBISHI TANABE PHARMA CORPORATION, priority 2012, published 2015).

Assays:
[1] = molecular target: T1, human HIF-PHD2 (Homo sapiens, UniProt Q9GZT9); experiment: HIF-PHD inhibition assay (fluorescence polarization), human HIF-PHD2; format: biochemical; details: 2-oxoglutaric acid 3.33 μmol/L
T1 construct: purchased CrystalGenomics Ltd
Summary of the method: (§1)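 FP readout; enzyme activity = mP post-enzyme − mP pre-enzyme. FAM-labelled probe, ACA spacer.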

[2] = system: Hep3B cells; experiment: EPO production assay (ELISA of culture supernatant); format: cell-based; details: Homo sapiens, 3 μmol/L test compound, 48 hours, relative to control (0.1% DMSO), read-out: EPO production stimulation rate with 3 μmol/L test compound
Summary of the method: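 Values are fold EPO production at 3 μmol/L compound relative to untreated control, quantified by ELISA of culture supernatant. Hep3B cells were exposed for 48 h in MEM containing 0.5% FBS and 0.1% DMSO.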

[3] = molecular target: T2, human HIF-PHD3 (Homo sapiens, UniProt Q9H6Z9); experiment: HIF-PHD inhibition assay (fluorescence polarization), human HIF-PHD3; format: biochemical; details: 2-oxoglutaric acid 166 μmol/L
T2 construct: purchased CrystalGenomics Ltd
Summary of the method: as §1

T1 sequence (Q9GZT9 2-426 limits assumed): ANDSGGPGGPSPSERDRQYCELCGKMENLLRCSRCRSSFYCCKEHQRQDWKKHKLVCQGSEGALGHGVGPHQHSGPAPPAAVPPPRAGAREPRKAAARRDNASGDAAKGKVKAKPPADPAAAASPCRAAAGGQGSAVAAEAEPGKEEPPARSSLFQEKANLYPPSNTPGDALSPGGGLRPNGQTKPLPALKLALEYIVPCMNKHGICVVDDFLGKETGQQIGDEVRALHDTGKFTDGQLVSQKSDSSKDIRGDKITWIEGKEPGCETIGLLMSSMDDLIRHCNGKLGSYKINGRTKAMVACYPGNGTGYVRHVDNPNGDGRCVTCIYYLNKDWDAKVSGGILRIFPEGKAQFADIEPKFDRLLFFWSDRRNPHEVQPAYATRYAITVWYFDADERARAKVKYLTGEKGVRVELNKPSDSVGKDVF
T2 sequence (Q9H6Z9 whole entry): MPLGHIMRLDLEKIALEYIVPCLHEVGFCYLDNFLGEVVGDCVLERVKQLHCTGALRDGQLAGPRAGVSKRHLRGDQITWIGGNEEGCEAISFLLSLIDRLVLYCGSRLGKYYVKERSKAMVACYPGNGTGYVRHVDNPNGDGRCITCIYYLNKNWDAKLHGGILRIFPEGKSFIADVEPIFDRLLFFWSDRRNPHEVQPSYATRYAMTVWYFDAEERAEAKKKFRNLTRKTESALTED

Compound	IC50 [1]	IC50 [3]	fold induction at 3 µM [2]
O=C(O)c1cnn(-c2nc(O)c3c(cnn3CCCCCc3ccccc3)n2)c1 [Example 166]	31 nM	130 nM	8.1
O=C(O)c1cnn(-c2nc(O)c3c(n2)c(Cl)nn3CC2CCCCCC2)c1 [Example 226]	47 nM	1400 nM	2.2
O=C(O)c1cnn(-c2nc(O)c3c(cnn3CCCC3CCCCC3)n2)c1 [Example 161]	31 nM	150 nM	3.1
O=C(O)c1cnn(-c2nc(O)c3c(n2)c(F)nn3C2CCCCC2)c1 [Example 478]	45 nM	370 nM	1.8
O=C(O)c1cnn(-c2nc(O)c3c(cnn3CCCOc3ccc4c(c3C3CC3)CCCC4)n2)c1 [Example 191]	130 nM	540 nM	1.6
O=C(O)c1cnn(-c2nc(O)c3c(n2)c(C(F)(F)F)nn3CC2CCCCC2)c1 [Example 477]	180 nM	830 nM	2.5
O=C(O)c1cnn(-c2nc(O)c3c(cnn3CCCN(c3ccccc3)c3ccccc3)n2)c1 [Example 168]	23 nM	200 nM	66
C[C@@H](C1CCCCC1)n1ncc2nc(-n3cc(C(=O)O)cn3)nc(O)c21 [Example 144]	15 nM	1300 nM	4.3
O=C(O)c1cnn(-c2nc(O)c3c(cnn3CCCOc3ccc(OCc4ccccc4)c(F)c3)n2)c1 [Example 181]	35 nM	220 nM	34
O=C(O)c1cnn(-c2nc(O)c3c(n2)c(Cl)nn3Cc2ccc(Br)cc2)c1 [Example 220]	14 nM	340 nM	4
C[C@H]1CC[C@H](Cn2nc(Cl)c3nc(-n4cc(C(=O)O)cn4)nc(O)c32)CC1 [Example 223]	28 nM	950 nM	3.2
O=C(O)c1cnn(-c2nc(O)c3c(n2)c(F)nn3CC2CCC3(CC2)CC3)c1 [Example 466]	12 nM	240 nM	2.6
O=C(O)c1cnn(-c2nc(O)c3c(cnn3CCCOc3ccc4c(c3)CCCC4)n2)c1 [Example 188]	14 nM	540 nM	23
Cc1ccc(C(C(C)C)n2ncc3nc(-n4cc(C(=O)O)cn4)nc(O)c32)cc1 (stereo not drawn) [Example 25]	70 nM	2900 nM	2.9
O=C(O)c1cnn(-c2nc(O)c3c(cnn3CCOc3ccc(-c4ccccc4)cc3)n2)c1 [Example 205]	13 nM	280 nM	20
O=C(O)c1cnn(-c2nc(O)c3nn(Cc4cccc(-c5ccccc5)c4)cc3n2)c1 [Example 240]	17 nM	140 nM	1
Cc1ccc(C(C(C)C)n2ncc3nc(-n4cc(C(=O)O)cn4)nc(O)c32)cc1 (single isomer, unassigned) [Example 26]	66 nM	1500 nM	3.4
O=C(O)c1cnn(-c2nc(O)c3nn(Cc4ccc(-c5ccccc5)cc4F)cc3n2)c1 [Example 245]	2.3 nM	68 nM	6.2
O=C(O)c1cnn(-c2nc(O)c3c(n2)c(F)nn3CC2CCCCC2)c1 [Example 217]	32 nM	920 nM	2.4
O=C(O)c1cnn(-c2nc(O)c3c(cnn3CCC(c3ccccc3)c3ccccc3)n2)c1 [Example 134]	23 nM	360 nM	25
O=C(O)c1cnn(-c2nc(O)c3c(cnn3C[C@H]3CC[C@H](Oc4ccccc4F)CC3)n2)c1 [Example 146]	15 nM	300 nM	2.6
O=C(O)c1cnn(-c2nc(O)c3c(cnn3CCc3ccc4ccccc4n3)n2)c1 [Example 117]	37 nM	520 nM	2
O=C(O)c1cnn(-c2nc(O)c3c(n2)c(Cl)nn3CC2CCCCC2)c1 [Example 222]	48 nM	450 nM	1.5

The next lines start with results.

IC50 [1]	IC50 [3]	Compound	fold induction at 3 µM [2]
18 nM	250 nM	Cc1c(Cn2ncc3nc(-n4cc(C(=O)O)cn4)nc(O)c32)ccc2ccccc12 [Example 35]	5.7
25 nM	410 nM	Cc1ccc(Cn2ncc3nc(-n4cc(C(=O)O)cn4)nc(O)c32)cc1-c1ccccc1 [Example 53]	3.3
65 nM	170 nM	O=C(O)c1cnn(-c2nc(O)c3c(cnn3CCOc3ccc(C(F)(F)F)cc3)n2)c1 [Example 203]	4.5
20 nM	140 nM	O=C(O)c1cnn(-c2nc(O)c3c(cnn3C[C@H]3CC[C@H](Oc4ccc(C(F)(F)F)cc4)CC3)n2)c1 [Example 152]	20
20 nM	260 nM	O=C(O)c1cnn(-c2nc(O)c3c(cnn3C[C@H]3CC[C@H](C(F)(F)F)CC3)n2)c1 [Example 137]	9.8
53 nM	360 nM	CCC(c1ccc(C(F)(F)F)cc1)n1ncc2nc(-n3cc(C(=O)O)cn3)nc(O)c21 (stereo not drawn) [Example 326]	7.7
21 nM	330 nM	O=C(O)c1cnn(-c2nc(O)c3c(cnn3Cc3ccc(-c4ccccc4OC(F)(F)F)cc3F)n2)c1 [Example 86]	2.5
26 nM	720 nM	C[C@@H](c1ccc(C(F)(F)F)cc1)n1ncc2nc(-n3cc(C(=O)O)cn3)nc(O)c21 [Example 19]	10
86 nM	550 nM	CCCC(C)(C)Cn1ncc2nc(-n3cc(C(=O)O)cn3)nc(O)c21 [Example 493]	2.8
59 nM	300 nM	O=C(O)c1cnn(-c2nc(O)c3c(cnn3CCOc3cccc(C(F)(F)F)c3)n2)c1 [Example 202]	3.6
18 nM	66 nM	Cc1cccc(-c2ccc(Cn3ncc4nc(-n5cc(C(=O)O)cn5)nc(O)c43)cc2)c1 [Example 64]	23
14 nM	160 nM	O=C(O)c1cnn(-c2nc(O)c3c(cnn3CC3CCN(c4ccc(C(F)(F)F)cn4)CC3)n2)c1 [Example 171]	11
10 nM	770 nM	O=C(O)c1cnn(-c2nc(O)c3nn(Cc4cc(C(F)(F)F)cc(Cl)c4F)cc3n2)c1 [Example 238]	0.7
51 nM	320 nM	O=C(O)c1cnn(-c2nc(O)c3c(cnn3Cc3cc(F)cc(-c4ccccc4)c3)n2)c1 [Example 50]	6.3
14 nM	290 nM	O=C(O)c1cnn(-c2nc(O)c3c(cnn3CCCCOc3ccc(F)cc3)n2)c1 [Example 215]	6.7
33 nM	240 nM	Cc1ccccc1-c1ccc(Cn2ncc3nc(-n4cc(C(=O)O)cn4)nc(O)c32)c(F)c1 [Example 83]	6.2
16 nM	260 nM	O=C(O)c1cnn(-c2nc(O)c3c(cnn3Cc3ccc(-c4ccccc4F)cc3)n2)c1 [Example 56]	19
22 nM	340 nM	O=C(O)c1cnn(-c2nc(O)c3c(cnn3Cc3cccc(-c4ccc(C(F)(F)F)cc4)c3)n2)c1 [Example 41]	9.5
13 nM	190 nM	O=C(O)c1cnn(-c2nc(O)c3c(cnn3CCCOc3ccccc3C(F)(F)F)n2)c1 [Example 173]	7.7
130 nM	860 nM	O=C(O)c1cnn(-c2nc(O)c3c(cnn3CCOc3ccccc3C(F)(F)F)n2)c1 [Example 201]	3.2
31 nM	160 nM	COc1ccc(Cn2ncc3nc(-n4cc(C(=O)O)cn4)nc(O)c32)cc1 [Example 3]	2.1
15 nM	130 nM	Cc1ccccc1-c1ccc(Cn2ncc3nc(-n4cc(C(=O)O)cn4)nc(O)c32)cc1 [Example 57]	9.1
15 nM	120 nM	O=C(O)c1cnn(-c2nc(O)c3c(cnn3Cc3ccc(-c4ccccc4F)c(F)c3F)n2)c1 [Example 101]	12
44 nM	> 3000 nM	O=C(O)c1cnn(-c2nc(O)c3c(cnn3Cc3ccc(F)c(C(F)(F)F)c3)n2)c1 [Example 12]	2.3
65 nM	1200 nM	C[C@H](c1ccc(Cl)cc1)n1ncc2nc(-n3cc(C(=O)O)cn3)nc(O)c21 [Example 20]	5.5
68 nM	85 nM	O=C(O)c1cnn(-c2nc(O)c3c(cnn3Cc3cccc(-c4ccccc4F)c3)n2)c1 [Example 46]	3.7
21 nM	220 nM	CC(C)(Cn1ncc2nc(-n3cc(C(=O)O)cn3)nc(O)c21)Oc1ccc(Cl)cc1 [Example 210]	19
11 nM	140 nM	O=C(O)c1cnn(-c2nc(O)c3c(cnn3Cc3cccc(-c4ccc(F)cc4)c3)n2)c1 [Example 40]	5
23 nM	320 nM	O=C(O)c1cnn(-c2nc(O)c3c(cnn3Cc3ccc(Cl)c(F)c3)n2)c1 [Example 7]	3.4
